From a melting point compilation (Tetko et al.; mined from patent text by program, amines drawn as free bases though some values may be those of a salt)

Point of comparison: CCNC(=O)CC1CCN(Cc2cnc3cc(NC(=O)c4ccc(-c5ccc(F)cc5)cc4)c(C)cc3c2)CC1, melting point 251 °C. Against it:
- NC(=O)c1cc(-c2c[nH]nc2-c2ccc(F)cc2)ccn1 — lower, 230 to 231 °C
- CC(C)(CSc1ccc(Cl)cc1)C(Cn1ccnc1)=NO — lower, 125 to 126 °C
- S=c1nc(-c2cc(Cl)sc2Cl)[nH]n1Cc1ccccc1 — lower, 160 to 162 °C
- O=c1[nH][nH]c(=O)n1Cc1ccccc1 — lower, 185 to 188 °C
- CCN(CC)C(=O)c1cncc(OC2SCC(O)C(O)C2O)c1 (centres undefined) — lower, 143 °C
- CC1(NC(=O)c2ccccc2)COC(c2nc(-c3ccc(F)cc3)c(-c3ccncc3)[nH]2)OC1 (centres undefined) — lower, 235 to 236 °C
- O=C1c2ccc(Sc3ccc(Cl)cc3)cc2C(=O)N1Cc1cccnc1 — lower, 115 to 118 °C
- O=C(CCCCN1CCCCC1)c1ccc2oc3ccc(C(=O)CCCCN4CCCCC4)cc3c(=O)c2c1 — lower, 109 to 110 °C
- CCn1cc(C(=O)O)c(=O)c2cc(F)c(N3CCN(C)C(C)C3)cc21 (centres undefined) — lower, 244 to 246 °C
- CC1(C)CCC(C)(C)c2cc(C(C)(O)C(=O)O)ccc21 (centres undefined) — lower, 149 to 150 °C
- O[Si](Cn1cncn1)(c1ccc(F)cc1)c1ccc(F)cc1 — lower, 130 to 131 °C
- CCCc1nnc(Cc2cn(-c3ccccc3)nc2OCc2ccc(OCc3nc(-c4ccco4)oc3C)c(OC)c2)o1 — lower, 102 to 103 °C
- CCOC(=O)c1ccccc1NCCOc1cccc2ccccc12 — lower, 81 to 83 °C
- Cc1cccc(-c2c3c(cc4ccc5c(c24)OCO5)C(=O)NC3=O)c1 — higher, 261 to 264 °C
- O=Cc1cccc2c1nc(-c1c(F)cccc1F)n2Cc1c(F)cccc1F — lower, 151 to 153 °C
- CCC(C)c1ccc2ccccc2c1C(=O)O (centres undefined) — lower, 168 to 170 °C
- Cc1nn(-c2cc(OC(C)C)c(Cl)cc2Cl)c(=O)[nH]c1=O — lower, 163 to 164 °C
- COc1ccc2c(c1)C1(CO2)C(=O)N(C)c2ccccc21 (centres undefined) — lower, 159 to 161 °C
- COC(=O)c1ccc(-c2n[nH]c(C)n2)cc1Cl — lower, 196 to 198 °C
- CC(C)(C)OC(=O)C(Nc1ccccc1)C(=O)OC(C)(C)C — lower, 94 °C
- CCOC(=O)c1cn2c(C)c(C)nc2c(O)c1CCC(=O)c1ccccc1 — lower, 172 to 174 °C
- COCC1CN(Cc2cc(OC)c(OC)c(OC)c2)CCN1C(=O)c1cn2ccccc2n1 (centres undefined) — lower, 129 to 130 °C
- CCCn1nc2c(N)nc3ccccc3c2c1CC(C)(C)O — lower, 188 to 190 °C
- FC(F)(F)c1ccc(-c2cc(C(F)(F)F)n3nccc3n2)cc1 — lower, 110 to 111 °C
- N#CCCNC(=S)C1=CC(CF)(CF)Oc2ccc(C(F)(F)F)cc21 — lower, 105 to 106 °C
- CC(=O)CS(=O)(=O)NC1(c2ccc(OCc3ccc4ccccc4n3)cc2)CCCCCC1 — lower, 174 to 176 °C
- O=c1[nH]c2cc(F)c(Cl)c(F)c2[nH]c1=O — not separable, > 250 °C
- Fc1ccc(Cn2c(NC3CCN(CCNc4nc5cccnc5s4)CC3)nc3ccccc32)cc1 — lower, 204 °C
- CCN=C1SC(=NOC(=O)N(C)SC(Cl)(Cl)Cl)C(C)(C)S1 — lower, 69 to 71 °C
- COC(=O)C1C=CCN2C(=O)C(C)(CCO)C(=O)N12 (centres undefined) — lower, 97 to 99 °C
- CSc1nc(C)ccc1NC(=O)CCCCCSc1nc2ccccc2o1 — lower, 140 to 141 °C
- CC(=O)c1ccc(-c2ccccc2NC(=N)N(C)C)cc1 — lower, 174 to 175 °C
- CN(C)C1(c2ccccc2)CCC(NC(=S)NCCc2c[nH]c3ccccc23)CC1 (centres undefined) — lower, 98 to 103 °C
- Cc1ccc2c(c1)C=Cc1nc(C)oc1C2c1cn(Cc2cccc(C(=O)O)c2)c(=O)[nH]c1=S (centres undefined) — lower, 180 °C
- O=C(Nc1nnc(C(F)(F)F)o1)C(c1ccccc1)c1ccccc1 — lower, 149 to 150 °C
- O=C(O)c1ccc2c(c1)nc(-c1ccc(Oc3cccc(OCc4ccncc4)c3)cc1)n2C1CCCCC1 — lower, 235 to 237 °C
- COc1cc2c(cc1OC)C1(CCC2=O)CCC(=O)N(C)C1=O (centres undefined) — lower, 168 to 170 °C
- C#CCN1C(=O)CN(C)c2ccc(-c3ncc(C(F)(F)F)cc3Cl)cc21 — lower, 128 to 129 °C
- CC(C)N1CCc2[nH]c3ccc4scc(-c5ccccc5)c4c3c2C1 — lower, 204 °C
- COc1cc(C(=O)NS(=O)(=O)c2ccccc2C)ccc1Cc1cn(C(C)C)c2ccc(CCCC(=O)N(C)C)cc12 — lower, 60 °C
- O=C1NC(=S)NC1=Cc1cc(O)c(O)c([N+](=O)[O-])c1 — higher, > 350 °C
- CCOc1nn(-c2ccc(C(F)(F)F)cn2)cc1CCCOc1ccc(CCC(=O)O)c(OC(C)C)c1 — lower, 104 to 105 °C
- O=C(O)c1ccc(CN(Cc2ccc(C(F)(F)P(=O)(O)O)c(Br)c2)S(=O)(=O)c2ccccc2)cc1 — lower, 160 to 162 °C
- O=C1CC[C@@H]([N+](=O)[O-])[C@H](c2ccc(Cl)cc2)N1 (relative stereo) — lower, 148 to 150 °C
- CNc1nnc(C(C)(C)CCl)s1 — lower, 91 to 93 °C
- COc1c(OCc2ccccc2)c(OC)c2c(=O)cc(-c3ccc(OCc4ccccc4)cc3)oc2c1OC — lower, 172 to 173 °C
- CC(C)n1cc(-c2cccc(Cl)c2)c2ncccc2c1=O — lower, 164 °C
- COc1cc(C=CC(=O)Nc2cnc3cc(C)c(C)cc3c2-c2ccccc2Cl)cc(OC)c1O — higher, 278 to 280 °C
- CCOC(=O)c1cnc2n(c1=O)-c1ccccc1N(C=O)C2 — lower, 172 to 174 °C
- COc1cc(OC)c2c(=O)[nH]c(-c3ccc(OCCN4CCCC4)c(-c4ccc(S(C)=O)cc4)n3)nc2c1 (centres undefined) — lower, 103 to 105 °C
- CN1CCCCC1COC(=O)c1c[nH]c2ccccc12 (centres undefined) — lower, 168 to 170 °C
- NC(=O)c1n[nH]c2ccccc12 — higher, 284 to 286 °C
- C=CCOc1c(I)cc(C(=O)CCC(=O)c2cc(OC)c(OC)c(OC)c2)cc1OC — lower, 113 to 114 °C
- COc1cc(N)c(I)cc1C(=O)NC1(C)CCN(CCCOc2ccc(F)cc2)CC1 — lower, 144 °C
- Cc1nc2c(cc1C(=O)NC(=N)N)CCCCC2 — lower, 230 to 232 °C
- CC(C)(C)OC(=O)NCC(CC(=O)Nc1ccccc1)c1ccc(Cl)cc1 (centres undefined) — lower, 165 to 167 °C
- COC1=CC(=O)CC(NC(=O)Nc2ccccc2)C1 (centres undefined) — lower, 183 to 185 °C
- COC(=O)[C@H]1[C@H](N2C(=O)c3ccccc3C2=O)C(=O)N1Cc1ccc(OC)cc1OC (relative stereo) — lower, 186 to 188 °C
- Cc1ccc2cccc(OCc3c(Cl)ccc(N(C)C(=O)CNC(=O)CN4CCN(c5ccc([N+](=O)[O-])cc5)CC4)c3Cl)c2n1 — lower, 178 to 181 °C
- O=[N+]([O-])c1cnn(-c2ccc(C(F)(F)F)cc2Cl)c1 — lower, 106 to 109 °C
- O=C(O)Cc1ccc2c(c1)C(=O)c1cc(C(F)(F)F)ccc1CO2 — lower, 152 to 155 °C
- COc1cc(C2=C(c3c(C)[nH]c4ccccc34)C(=O)NC2=O)cc(OC)c1OC — higher, 266 °C
- Nc1cc(F)ccc1C(=O)Oc1ccccc1 — lower, 69 to 70 °C
- CN(SC(Cl)(Cl)Cl)S(=O)(=O)C(Cl)=C(Cl)Cl — lower, 57 to 58 °C
- O=[N+]([O-])c1ccc2c(c1)C(Cc1ccncc1)(Cc1ccncc1)c1ccccc1-2 — higher, 260 to 264 °C
- CCOC(=O)c1sc(C)c(C(=O)OCC)c1OC — lower, 109 to 111 °C
- COc1ccc(C(=O)Nc2ccncc2)c2c1oc1ccc(C(F)(F)F)cc12 — higher, 259 °C
- CC(=O)Oc1c(C)c(C)c2c(c1C)CCC(C)(C=O)O2 (centres undefined) — lower, 88 to 90 °C
- CC(C)(C)c1ccc(COCCCCCCNC(=O)c2cc(-c3cccc(C(F)(F)F)c3)c(OCC(=O)O)c(-c3cccc(C(F)(F)F)c3)c2)cc1 — lower, 156 to 158 °C
- O=C(O)COc1cc(C(=O)O)nc2ccc(Cl)cc12 — higher, 260 °C
- COC(=O)c1cn(S(=O)(=O)c2ccccc2)c2ncc([N+](=O)[O-])cc12 — lower, 195 to 196 °C
- Cc1cc(-c2nc3cccnn3c2-c2ccnc(NC(=O)Nc3cccnc3)c2)ccc1F — lower, 233 to 234 °C
- O=C(O)c1ccc2c(c1)C(=O)N(c1ccccc1)C2=O — higher, 257 to 258 °C
- O=C(Nc1ccc(Cl)c(Cl)c1)NS(=O)(=O)c1ccc2c(c1)CCC2 — lower, 156 to 158 °C
- CCN(CC)C(=O)C(c1ccccc1)n1cnc2[nH]ncc2c1=S (centres undefined) — lower, 143 to 146 °C
- CC(C)Nc1ccc(C2=NNC(=O)Cc3cc4c(cc32)OCO4)cc1 — lower, 144 to 146 °C
- CCCCc1nc2c(n1Cc1ccc(-c3ccccc3S(=O)(=O)NC(=O)NCCC)cc1)C(=CC(=O)OCC)CCS2 — lower, 170 °C
- O=C(NC(=O)c1c(F)cccc1F)Nc1ccc(Oc2ccc(Cl)cc2)c(Cl)c1 — lower, 194 to 196 °C
- CC(=O)C(O)C1OC(O)(N=C=O)C(O)(C(C)=O)C(O)(C(C)=O)C1(O)C(C)=O (centres undefined) — lower, 113 to 115 °C
- CC(C)c1ccc(N(Cc2ccc(N(C)C)cc2)C(=O)C2CCCc3cc(OCCN(C)C)ccc32)cc1 (centres undefined) — lower, 133 °C
- CCOC(=O)C1=C(C)NC(CO)=C(C(=O)OCC)C1c1cccc(O)c1 (centres undefined) — lower, 162 to 163 °C
- OC1C2=C(CCN(CCCCc3c[nH]c4ccccc34)C2)c2ccccc21 (centres undefined) — lower, 205 to 208 °C
- Cc1ccc(C)c(NS(=O)(=O)c2ccc(N3CCNC3=O)cc2)c1 — lower, 213 to 215 °C
- C=CCn1c(=O)c2c(nc(/C=C/c3cc(OC)c(OC(C)=O)c(OC)c3)n2C)n(CC=C)c1=O — lower, 220 to 221 °C
- COc1cc2c3c4c(c(-c5ccccc5)cc3n(C)c2cc1OS(=O)(=O)C(F)(F)F)C(=O)NC4=O — lower, 244 to 246 °C
- CC1(C)COP(N(CCCCCCN(C2CC(C)(C)NC(C)(C)C2)P2OCC(C)(C)CO2)C2CC(C)(C)NC(C)(C)C2)OC1 — lower, 103 °C
- CCOc1ccc2c(=O)c(-c3nnnn3C)cn(C)c2c1 — lower, 214 to 217 °C
- CS(=O)(=O)N(c1nc(CN2CCN(C(c3ccccc3)c3ccccc3)CC2)cs1)S(C)(=O)=O — lower, 167 to 168 °C
- CC1=C(C(=O)O)Cc2ccc(C)cc21 — lower, 174 to 182 °C
- CC(=O)c1cc(-c2ccncc2)sc1-c1ccncc1 — lower, 117 to 119 °C
- COCCOc1ccc(/C=C/C(=O)NS(=O)(=O)c2ccccn2)c(Oc2ncc(C(F)(F)F)cc2Cl)c1 — lower, 164 to 165 °C
- Cc1cccc(CO)c1CNc1cc(C(=O)N(C)C)cc2c1nc(C)n2C — lower, 197 to 198 °C
- CC(=O)c1ccc(S(=O)(=O)Nc2nnn[nH]2)cc1 — lower, 150 to 151 °C
